{"source": "patent US20220275274A1", "about": "“NEUTRAL FLUORESCENT MITOCHONDRIAL MARKER BASED ON NITROGEN-CONTAINING HETEROCYCLE, PREPARATION METHOD AND USE THEREOF” (SOOCHOW UNIVERSITY, priority 2020, published 2022)", "key": {"[1]": {"assay": "ultraviolet absorption and fluorescence emission in chloroform", "type": "physicochemical", "details": "10 μM; for maximum emission wavelength (fluorescence spectrum): excitation wavelength and slit width per dye", "protocol": "The ultraviolet absorption and fluorescence emission of the dyes prepared in the examples and comparative examples (at a concentration of 10 μM) in chloroform were tested. The horizontal ordinate is the wavelength, and the vertical ordinate is the absorbance and fluorescence intensity, respectively.\nIn the ultraviolet-visible absorption spectrum, dye 1a has the maximum absorption at 378 nm; and in the fluorescence spectrum, dye 1a has the highest fluorescence intensity at 452 nm, where the excitation wavelength is 370 nm, and the slit width is 3 nm/1.5 nm. In the ultraviolet-visible absorption spectrum, dye 1b has a maximum absorption wavelength of 382 nm; and in the fluorescence spectrum, dye 1b has a maximum emission wavelength of 485 nm, where the excitation wavelength is 374 nm, and the slit width is 3 nm/1.5 nm. In the ultraviolet-visible absorption spectrum, dye 1c has a maximum absorption wavelength of 385 nm; and in the fluorescence spectrum, dye 1c has a maximum emission wavelength of 454 nm, where the excitation wavelength is 380 nm, and the slit width is 3 nm/1.5 nm. In the ultraviolet-visible absorption spectrum, dye 2a has the maximum absorption at 364 nm; and in the fluorescence spectrum, dye 2a has the highest fluorescence intensity at 480 nm, where the excitation wavelength is 374 nm, and the slit width is 3 nm/1.5 nm. In the ultraviolet-visible absorption spectrum, dye 2b has a maximum absorption wavelength of 360 nm; and in the fluorescence spectrum, dye 2b has a maximum emission wavelength of 458 nm, where the excitation wavelength is 370 nm, and the slit width is 3 nm/1.5 nm. In the ultraviolet-visible absorption spectrum, dye 2c has a maximum absorption wavelength of 356 nm; and in the fluorescence spectrum, dye 2c has a maximum emission wavelength of 441 nm, where the excitation wavelength is 360 nm, and the slit width is 3 nm/3 nm. In the ultraviolet-visible absorption spectrum, dye 3a has the maximum absorption at 548 nm; and in the fluorescence spectrum, dye 3a has the highest fluorescence intensity at 606 nm, where the excitation wavelength is 560 nm, and the slit width is 1.5 nm/1.5 nm. In the ultraviolet-visible absorption spectrum, dye 3b has a maximum absorption wavelength of 549 nm; and in the fluorescence spectrum, dye 3b has a maximum emission wavelength of 608 nm, where the excitation wavelength is 540 nm, and the slit width is 1.5 nm/1.5 nm. In the ultraviolet-visible absorption spectrum, dye 3c has a maximum absorption wavelength of 554 nm; and in the fluorescence spectrum, dye 3c has a maximum emission wavelength of 611 nm, where the excitation wavelength is 540 nm, and the slit width is 1.5 nm/1.5 nm. In the ultraviolet-visible absorption spectrum, dye 3d has a maximum absorption wavelength of 556 nm; and in the fluorescence spectrum, dye 3d has a maximum emission wavelength of 619 nm, where the excitation wavelength is 570 nm, and the slit width is 1.5 nm/1.5 nm. In the ultraviolet-visible absorption spectrum, dye 4 has a maximum absorption wavelength of 501 nm; and in the fluorescence spectrum, dye 4 has a maximum emission wavelength of 515 nm, where the excitation wavelength is 495 nm, and the slit width is 1.5 nm/1.5 nm. The above UV absorption and fluorescence emission test methods are conventional methods."}, "L929 cells": {"system": "L929 cells", "assay": "cell imaging, colocalization with red mitochondrial marker Mito Tracker Red CMXRos", "type": "cell-based", "details": "dye 1 μM; for mitochondria labeling ability (blue mitochondrial marker): L929 (normal) and HeLa (cancer) cells, vs Mito Tracker Red CMXRos; for colocalization coefficient: L929 cells, vs Mito Tracker Red CMXRos (100 nm), blue and red channel", "protocol": "(§1) Dye 1a was formulated into a mother liquor in DMSO (dimethyl sulfoxide), and then added to a conventional cell culture medium to give a concentration of dye 1a in the cell culture medium of 1 μM. L929 cells and HeLa cells were respectively co-cultured for 10 min in an incubator at saturated humidity, 37° C., and 5% CO2 (the experiment was same below). The existing red mitochondrial marker Mito Tracker® Red CMXRos (100 nm) was added, and the cells were co-incubated for another 10 min, washed three times with a PBS buffer, and imaged under a laser confocal microscope. In the blue channel, light of 405 nm was used for excitation, and a fluorescence signal in the range of 410-500 nm was collected; and in the red channel, light of 561 nm was used for excitation, and a fluorescence signal in the range of 570-750 nm was collected. […] The results are shown in FIG. 14, where (a) and (g) are the bright-field images; (b) and (h) are the cell images with dye 1a; (c) and (i) are the cell images with the red mitochondrial marker; (d) and (j) are overlapped images with blue channel and red channel, (e) and (k) show the fluorescence intensity of the ROI line in the overlapped images; and (f) and (1) show colocalization assays, with a colocalization coefficient of 0.90 (L929) and 0.84 (HeLa) respectively.\n(§2) The experiment method with dye 1b, dye 1c, dye 2a, dye 2b, and dye 2c (1 μM) is the same as that with dye 1a above, except that dye 1a is replaced. In FIG. 15, (a) and (g) are the bright-field images; (b) and (h) are the cell images with dye 1b; (c) and (i) are the cell images with the red mitochondrial marker; (d) and (j) are overlapped images with blue channel and red channel, (e) and (k) show the fluorescence intensity of the ROI line in the overlapped images; and (f) and (1) show colocalization assays, with a colocalization coefficient of 0.81 (L929) and 0.83 (HeLa) respectively. In FIG. 16, (a) and (g) are the bright-field images; (b) and (h) are the cell images with dye 1c; (c) and (i) are the cell images with the red mitochondrial marker; (d) and (j) are overlapped images with blue channel and red channel, (e) and (k) show the fluorescence intensity of the ROI line in the overlapped images; and (f) and (1) show a colocalization assay, both having a colocalization coefficient of 0.77. In FIG. 17, (a) and (g) are the bright-field images; (b) and (h) are the cell images with dye 2a; (c) and (i) are the cell images with the red mitochondrial marker; (d) and (j) are overlapped images with blue channel and red channel, (e) and (k) show the fluorescence intensity of the ROI line in the overlapped images; and (f) and (1) show colocalization assays, with a colocalization coefficient of 0.79 (L929) and 0.80 (HeLa) respectively. In FIG. 18, (a) and (g) are the bright-field images; (b) and (h) are the cell images with dye 2b; (c) and (i) are the cell images with the red mitochondrial marker; (d) and (j) are overlapped images with blue channel and red channel, (e) and (k) show the fluorescence intensity of the ROI line in the overlapped images; and (f) and (1) show colocalization assays, with a colocalization coefficient of 0.85 (L929) and 0.79 (HeLa) respectively. In FIG. 19, (a) and (g) are the bright-field images; (b) and (h) are the cell images with dye 2c; (c) and (i) are the cell images with the red mitochondrial marker; (d) and (j) are overlapped images with blue channel and red channel, (e) and (k) show the fluorescence intensity of the ROI line in the overlapped images; and (f) and (1) show colocalization assays, with a colocalization coefficient of 0.82 (L929) and 0.84 (HeLa) respectively."}, "HeLa cells": {"system": "HeLa cells", "assay": "cell imaging, colocalization with red mitochondrial marker Mito Tracker Red CMXRos", "type": "cell-based", "details": "dye 1 μM, vs Mito Tracker Red CMXRos (100 nm); for colocalization coefficient: blue and red channel", "protocol": "as §1, §2\nDye 4 was formulated into a mother liquor in DMSO, and then added to a conventional cell culture medium to give a concentration of dye 4 in the cell culture medium of 1 μM. HeLa cells were co-cultured for 10 min in an incubator at saturated humidity, 37° C., and 5% CO2. […]"}}}
{"smiles": "CCN(CC)c1ccc2c(C)c(-c3ccc4[nH]ncc4c3)c(=O)oc2c1", "note": "[dye 1a]", "values": [{"measurement": "maximum absorption wavelength (ultraviolet-visible absorption spectrum)", "setting": "[1]", "value": 378, "unit": "nm"}, {"measurement": "maximum emission wavelength (fluorescence spectrum)", "setting": "[1]", "value": 452, "unit": "nm"}, {"measurement": "mitochondria labeling ability (blue mitochondrial marker)", "setting": "L929 cells", "value": "mitochondria labeling ability in both normal cells and cancer cells"}, {"measurement": "colocalization coefficient", "setting": "L929 cells", "value": 0.90}, {"measurement": "colocalization coefficient", "setting": "HeLa cells", "value": 0.84}]}
{"smiles": "CCN(CC)c1ccc2c(C)c(-c3cnc4[nH]ccc4c3)c(=O)oc2c1", "note": "[dye 1b]", "values": [{"measurement": "maximum absorption wavelength (ultraviolet-visible absorption spectrum)", "setting": "[1]", "value": 382, "unit": "nm"}, {"measurement": "maximum emission wavelength (fluorescence spectrum)", "setting": "[1]", "value": 485, "unit": "nm"}, {"measurement": "mitochondria labeling ability (blue mitochondrial marker)", "setting": "L929 cells", "value": "mitochondria labeling ability in both normal cells and cancer cells"}, {"measurement": "colocalization coefficient", "setting": "L929 cells", "value": 0.81}, {"measurement": "colocalization coefficient", "setting": "HeLa cells", "value": 0.83}]}
{"smiles": "CCN(CC)c1ccc2c(C)c(-c3cnc4[nH]ncc4c3)c(=O)oc2c1", "note": "[dye 1c]", "values": [{"measurement": "maximum absorption wavelength (ultraviolet-visible absorption spectrum)", "setting": "[1]", "value": 385, "unit": "nm"}, {"measurement": "maximum emission wavelength (fluorescence spectrum)", "setting": "[1]", "value": 454, "unit": "nm"}, {"measurement": "mitochondria labeling ability (blue mitochondrial marker)", "setting": "L929 cells", "value": "mitochondria labeling ability in both normal cells and cancer cells"}, {"measurement": "colocalization coefficient", "setting": "L929 cells", "value": 0.77}, {"measurement": "colocalization coefficient", "setting": "HeLa cells", "value": 0.77}]}
{"smiles": "CCCCN1C(=O)c2cccc3c(-c4ccc5[nH]ncc5c4)ccc(c23)C1=O", "note": "[dye 2a]", "values": [{"measurement": "maximum absorption wavelength (ultraviolet-visible absorption spectrum)", "setting": "[1]", "value": 364, "unit": "nm"}, {"measurement": "maximum emission wavelength (fluorescence spectrum)", "setting": "[1]", "value": 480, "unit": "nm"}, {"measurement": "mitochondria labeling ability (blue mitochondrial marker)", "setting": "L929 cells", "value": "mitochondria labeling ability in both normal cells and cancer cells"}, {"measurement": "colocalization coefficient", "setting": "L929 cells", "value": 0.79}, {"measurement": "colocalization coefficient", "setting": "HeLa cells", "value": 0.80}]}
{"smiles": "CCCCN1C(=O)c2cccc3c(-c4cnc5[nH]ccc5c4)ccc(c23)C1=O", "note": "[dye 2b]", "values": [{"measurement": "maximum absorption wavelength (ultraviolet-visible absorption spectrum)", "setting": "[1]", "value": 360, "unit": "nm"}, {"measurement": "maximum emission wavelength (fluorescence spectrum)", "setting": "[1]", "value": 458, "unit": "nm"}, {"measurement": "mitochondria labeling ability (blue mitochondrial marker)", "setting": "L929 cells", "value": "mitochondria labeling ability in both normal cells and cancer cells"}, {"measurement": "colocalization coefficient", "setting": "L929 cells", "value": 0.85}, {"measurement": "colocalization coefficient", "setting": "HeLa cells", "value": 0.79}]}
{"smiles": "CCCCN1C(=O)c2cccc3c(-c4cnc5[nH]ncc5c4)ccc(c23)C1=O", "note": "[dye 2c]", "values": [{"measurement": "maximum absorption wavelength (ultraviolet-visible absorption spectrum)", "setting": "[1]", "value": 356, "unit": "nm"}, {"measurement": "maximum emission wavelength (fluorescence spectrum)", "setting": "[1]", "value": 441, "unit": "nm"}, {"measurement": "mitochondria labeling ability (blue mitochondrial marker)", "setting": "L929 cells", "value": "mitochondria labeling ability in both normal cells and cancer cells"}, {"measurement": "colocalization coefficient", "setting": "L929 cells", "value": 0.82}, {"measurement": "colocalization coefficient", "setting": "HeLa cells", "value": 0.84}]}
{"smiles": "CC1=CC(C)=[N+]2C1=C(c1ccc(-c3ccc4[nH]ncc4c3)cc1)c1c(C)cc(C)n1[B-]2(F)F", "note": "[dye 4]", "values": [{"measurement": "maximum absorption wavelength (ultraviolet-visible absorption spectrum)", "setting": "[1]", "value": 501, "unit": "nm"}, {"measurement": "maximum emission wavelength (fluorescence spectrum)", "setting": "[1]", "value": 515, "unit": "nm"}, {"measurement": "overlap with the red mitochondrial marker", "setting": "HeLa cells; green and red channel", "value": "cannot be overlapped well with the red mitochondrial marker"}]}
